Values joined by “and” are separate entries in the source; they are usually repeats but may differ in a detail not shown here. Identical values can stand only once. Like-named read-outs stand apart in the source and are kept apart here.
Legend:
[1] = tested on: mitochondrial translation; test: 35S metabolic labeling, de novo mitochondrial translation assay in Jurkat T cells; assay type: cell-based, human; conditions: 5 μM, 18 h of treatment
Description: Jurkat T cells were seeded in 6-well plates at a density of 1 million cells/ml and cultured with different concentrations of antibiotics for 18 h in RPMI-1640 medium (with 10% FBS, 2.05 mM L-glutamine (Sigma), and 55 μM 2-ME (Gibco)). After centrifugation, cells were incubated twice for 5 min at 37 °C in Cys-/Met-free medium (DMEM, high glucose, no glutamine, no methionine, no cysteine, supplemented with 10% dialyzed fetal bovine serum, 1× GlutaMax, and sodium pyruvate), followed by 20 min incubation at 37 °C in Cys-/Met-free medium supplemented with 100 µg/ml emetine to inhibit cytosolic translation (only for mitochondrial translation groups). Subsequently, 1 ml Cys-/Met-free medium supplemented with 200 (for cytosolic translation) or 400 µCi (for mitochondrial translation) of EasyTag EXPRESS [^35S] protein labeling mix (methionine and cysteine) (Perkin Elmer) were added to each sample and incubated for 20 min at 37 °C, 5% CO2. Following labeling, cells were washed three times with 1 ml PBS, harvested by centrifugation (400 × g, 10 min, 4 °C), and stored at −20 °C. Cells were lysed by resuspension in 30 µl PBS supplemented with a Complete EDTA-free protease inhibitor cocktail and 50 U Benzonase nuclease (Sigma) and by application of one freeze-thaw cycle. Protein contents were determined by Pierce BCA assay (Thermo Fisher). […]

Jurkat T cells = test: Cell viability assay (CCK-8), Jurkat T cells; assay type: cell-based, human; conditions: for cell vialibity normalized to Vehicle (DMSO): in % (unit assumed)
Procedure, shortened: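 This CCK-8 viability assay used Jurkat T cells seeded at 6000 per well and grown in supplemented RPMI-1640, 100 μl per well. Antibiotic stocks in DMSO were diluted in medium to give 9 concentrations, and untreated wells received matching DMSO. After treatment, cells were incubated with 10% CCK-8 for 3 h. Results were normalized to vehicle, technical repeats were plotted as mean ± SEM, and IC50 values were derived.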

HeLa cells = test: Cell viability assay (CCK-8), HeLa cells; assay type: cell-based; conditions: in % (unit assumed)
Description: (§1) Cells were seeded in 96-well plates ranging from 2000 to 15,000 cells per well depending on different cell lines and treated with antibiotics in serial dilutions for 72 h (120 h for the preliminary assays) in a humidified incubator (37 °C, 5% CO2) in 100 μl medium (DMEM with 10% FBS, 2.05 mM L-glutamine (Sigma) for Hek293 and Hela; RPMI-1640 with 10% FBS, 2.05 mM L-glutamine (Sigma), and 55 μM 2-ME (Gibco) for Jurkat T cells and PBMCs). Based on preliminary tests, the number of cells per well was optimized to 2000 for Hela and Hek293, 6000 for Jurkat T cells, and 15,000 for PBMCs. The stocks of antibiotics were prepared by dissolving in DMSO. As control, the same amount of DMSO was added to the non-treated groups. Serial drug dilutions were prepared in the corresponding medium to provide a total of 9 concentrations up to 300 μM for tetracyclines and up to 900 μM for additional bacterial protein synthesis inhibitors. After drug treatment, 10% CCK-8 (Cell Counting Kit-8, Sigma Aldrich) (10 μl per well) of the total volume was added to the cells and incubated for 1–4 h depending on cell lines (1 h for Hela and Hek293; 3 h for Jurkat T cells; 4 h for PBMCs) before the evaluation of the effect of antibiotics on cell viability. […] Results were visually confirmed under the light microscope. Each treatment was performed in technical repeats. Dose-response curves were plotted, mean ± SEM was shown, and half maximal inhibitory concentration (IC50) values were calculated in GraphPad Prism.

PBMCs = test: Cell viability assay (CCK-8), PBMCs; assay type: cell-based, human; conditions: Homo sapiens, PBMC, 72 h, PBMCs, read-out: cell vialibity normalized to Vehicle (DMSO)
Description: as §1, with “Buffy coats were ordered from anonymous blood donors at […]. […] Cells” for “Cells”, “1-4” for “1–4”

## C[C@H]1c2cccc(O)c2C(=O)C2=C(O)[C@]3(O)C(=O)C(C(N)=O)=C(O)[C@@H](N(C)C)[C@@H]3[C@@H](O)[C@@H]21 [Doxycycline, doxycycline]
[1]
  inhibition of mitochondrial translation: weaker inhibition
Jurkat T cells; Homo sapiens, 120 h, Jurkat T cells, after 5 days, read-out: IC50 (cell survival)
  IC50: 6.93 µM
Jurkat T cells; Jurkat 3d, dose 1 μM
  cell vialibity normalized to Vehicle (DMSO): 102.781 and 111.139 and 99.3878 and 96.4732 and 90.2582
Jurkat T cells; Jurkat 3d, dose 5 μM
  cell vialibity normalized to Vehicle (DMSO): 115.784 and 120.149 and 111.073 and 98.3364 and 101.664
Jurkat T cells; Jurkat 3d, dose 10 μM
  cell vialibity normalized to Vehicle (DMSO): 38.4083 and 33.5773 and 30.3966 and 27.7083 and 36.9178
Jurkat T cells; Jurkat 3d, dose 50 μM
  cell vialibity normalized to Vehicle (DMSO): 15.6109 and 16.1964 and 17.4075 and 16.8885 and 14.799
Jurkat T cells; Jurkat 3d, dose 100 μM
  cell vialibity normalized to Vehicle (DMSO): 22.9705 and 21.6928 and 21.7195 and 21.0407 and 21.5331
Jurkat T cells; Jurkat 5d, dose 1 μM
  cell vialibity normalized to Vehicle (DMSO): 114.324 and 76.849 and 78.0026 and 73.9947 and 75.2933
Jurkat T cells; Jurkat 5d, dose 5 μM
  cell vialibity normalized to Vehicle (DMSO): 77.1127 and 72.762 and 88.7937 and 109.835 and 79.8088
Jurkat T cells; Jurkat 5d, dose 10 μM
  cell vialibity normalized to Vehicle (DMSO): 12.7884 and 10.534 and 11.8194 and 11.8853 and 12.2149
Jurkat T cells; Jurkat 5d, dose 50 μM
  cell vialibity normalized to Vehicle (DMSO): 9.394 and 7.97 and 7.877 and 8.029 and 7.9499
Jurkat T cells; Jurkat 5d, dose 100 μM
  cell vialibity normalized to Vehicle (DMSO): 12.3797 and 14.0541 and 16.7699 and 13.5333 and 13.3553
Jurkat T cells; Jurkat, 72 h, dose 0.0457247 μM, Fig. 1A
  cell vialibity normalized to Vehicle (DMSO): 104.061 and 104.425 and 103.549
Jurkat T cells; Jurkat, 72 h, dose 0.137174 μM, Fig. 1A
  cell vialibity normalized to Vehicle (DMSO): 102.734 and 100.282 and 102.099
Jurkat T cells; Jurkat, 72 h, dose 0.411523 μM, Fig. 1A
  cell vialibity normalized to Vehicle (DMSO): 102.372 and 108.487 and 106.988
Jurkat T cells; Jurkat, 72 h, dose 1.23457 μM, Fig. 1A
  cell vialibity normalized to Vehicle (DMSO): 101.608 and 103.54 and 101.759
Jurkat T cells; Jurkat, 72 h, dose 3.7037 μM, Fig. 1A
  cell vialibity normalized to Vehicle (DMSO): 101.93 and 103.62 and 98.3642
Jurkat T cells; Jurkat, 72 h, dose 11.1111 μM, Fig. 1A
  cell vialibity normalized to Vehicle (DMSO): 87.2939 and 95.2132 and 89.0432
Jurkat T cells; Jurkat, 72 h, dose 33.3333 μM, Fig. 1A
  cell vialibity normalized to Vehicle (DMSO): 14.5557 and 15.5672 and 13.1235
Jurkat T cells; Jurkat, 72 h, dose 100 μM, Fig. 1A
  cell vialibity normalized to Vehicle (DMSO): 5.107 and 4.7868 and 3.556
HeLa cells; Hela 3d, dose 1 μM
  cell vialibity normalized to Vehicle (DMSO): 90.6648 and 96.338 and 89.6672 and 89.6605 and 88.6496
HeLa cells; Hela 3d, dose 5 μM
  cell vialibity normalized to Vehicle (DMSO): 84.5992 and 86.2752 and 82.4709 and 76.6381 and 79.4714
HeLa cells; Hela 3d, dose 10 μM
  cell vialibity normalized to Vehicle (DMSO): 79.4248 and 81.7526 and 84.3598 and 79.9369 and 77.0704
HeLa cells; Hela 3d, dose 50 μM
  cell vialibity normalized to Vehicle (DMSO): 73.5987 and 75.9863 and 80.8614 and 86.3816 and 72.8139
HeLa cells; Hela 3d, dose 100 μM
  cell vialibity normalized to Vehicle (DMSO): 66.9345 and 67.3003 and 64.2675 and 62.1126 and 67.4466
HeLa cells; Hela 5d, dose 1 μM
  cell vialibity normalized to Vehicle (DMSO): 99.6093 and 93.5325 and 94.7977 and 102.368 and 101.019
HeLa cells; Hela 5d, dose 5 μM
  cell vialibity normalized to Vehicle (DMSO): 109.557 and 87.6871 and 94.9961 and 97.211 and 96.619
HeLa cells; Hela 5d, dose 10 μM
  cell vialibity normalized to Vehicle (DMSO): 94.5723 and 89.5534 and 92.3875 and 106.137 and 99.0323
HeLa cells; Hela 5d, dose 50 μM
  cell vialibity normalized to Vehicle (DMSO): 75.251 and 76.5432 and 75.1938 and 78.2863 and 73.7483
HeLa cells; Hela 5d, dose 100 μM
  cell vialibity normalized to Vehicle (DMSO): 73.589 and 66.6556 and 71.8609 and 76.0624 and 69.5949
PBMCs; dose 0.0457247 μM, Fig. 1A
  viability at 0.0457247 µM: 105%
PBMCs; dose 0.137174 μM, Fig. 1A
  viability at 0.137174 µM: 100%
PBMCs; Fig. 1A
  viability at 0.411523 µM: 101%
  viability at 3.7037 µM: 103%
  viability at 33.3333 µM: 89.9%
PBMCs; Fig. 1B
  viability at 0.411523 µM: 103%
  viability at 3.7037 µM: 135%
  viability at 33.3333 µM: 19.7%
PBMCs; dose 100 μM, Fig. 1A
  viability at 100 µM: 34.7%
